In ChEMBL document CHEMBL1141920, “Substituted aminobenzimidazole pyrimidines as cyclin-dependent kinase inhibitors” (Bioorg Med Chem Lett, 2005) one finds IC50 data, which are given here for 39 molecules.

For experiment [1], the target named is Cyclin-dependent kinase 1 (Homo sapiens, UniProt P06493). Put plainly: Inhibitory concentration against Cyclin dependent kinase 1.
Experiment [2] has as its target Mitogen-activated protein kinase 3 (Homo sapiens, UniProt P27361). Description: Inhibitory concentration against Extracellular signal-regulated kinase 1.
Experiment [3] is described as follows: Inhibitory concentration against Casein kinase 2.
Experiment [4] is described as follows: Inhibitory concentration against Platelet-derived growth factor receptor.
A short description of experiment [5]: Inhibitory concentration against Mitogen-activated protein kinase p38. More on the design: species or system Homo sapiens.
For experiment [6], the target named is Cyclin-dependent kinase 4 (Homo sapiens, UniProt P11802). Put plainly: Inhibitory concentration against Cyclin dependent kinase 4.
The nature of experiment [7]: Inhibitory concentration against Cyclin dependent kinase 2. The arrangement: species or system Homo sapiens.

SMILES strings stand for the structures. Values joined by “and” are separate entries in the source; they are usually repeats but may differ in a detail not shown here. Equal values may be shown once. A value given as a limit tells only on which side of the number the result lay.

Sequence of Mitogen-activated protein kinase 3 (P27361 whole entry): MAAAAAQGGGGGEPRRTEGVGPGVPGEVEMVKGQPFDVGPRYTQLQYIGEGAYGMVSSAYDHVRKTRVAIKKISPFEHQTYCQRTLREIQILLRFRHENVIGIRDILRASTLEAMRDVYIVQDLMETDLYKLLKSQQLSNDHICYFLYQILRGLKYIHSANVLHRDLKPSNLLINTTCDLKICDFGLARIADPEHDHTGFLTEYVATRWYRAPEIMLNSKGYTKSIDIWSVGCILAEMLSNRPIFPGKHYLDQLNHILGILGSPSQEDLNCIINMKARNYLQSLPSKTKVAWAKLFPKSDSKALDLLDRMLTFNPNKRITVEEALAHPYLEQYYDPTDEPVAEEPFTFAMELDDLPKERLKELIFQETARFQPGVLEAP
Sequence of Cyclin-dependent kinase 4 (P11802 whole entry): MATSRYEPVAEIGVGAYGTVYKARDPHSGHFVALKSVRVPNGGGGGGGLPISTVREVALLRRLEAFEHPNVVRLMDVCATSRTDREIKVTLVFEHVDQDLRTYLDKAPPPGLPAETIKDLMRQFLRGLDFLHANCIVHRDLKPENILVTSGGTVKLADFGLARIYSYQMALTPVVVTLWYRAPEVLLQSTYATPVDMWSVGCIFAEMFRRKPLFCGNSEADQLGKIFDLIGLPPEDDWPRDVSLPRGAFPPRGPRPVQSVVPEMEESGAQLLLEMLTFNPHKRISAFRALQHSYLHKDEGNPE
Sequence of Cyclin-dependent kinase 1 (P06493 whole entry): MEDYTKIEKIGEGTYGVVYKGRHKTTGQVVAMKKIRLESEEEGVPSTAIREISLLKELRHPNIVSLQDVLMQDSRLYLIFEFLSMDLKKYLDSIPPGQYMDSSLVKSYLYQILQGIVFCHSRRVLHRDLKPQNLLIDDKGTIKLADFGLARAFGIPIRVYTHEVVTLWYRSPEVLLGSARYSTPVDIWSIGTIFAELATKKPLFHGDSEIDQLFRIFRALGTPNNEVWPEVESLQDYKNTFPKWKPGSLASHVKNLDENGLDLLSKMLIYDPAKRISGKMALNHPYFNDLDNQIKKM

Take `CC(C)Oc1nc(Nc2ccc3nc[nH]c3c2)ncc1C(F)(F)F`: in experiment [1], the IC50 amounted to 25 nM. Consider `FC(F)(F)c1ccc(Oc2nc(Nc3ccc4[nH]cnc4c3)ncc2C(F)(F)F)cc1`, for which, in experiment [1], the IC50 was greater than 1000 nM.

With `CC(C)COc1nc(Nc2ccc3[nH]cnc3c2)ncc1C(F)(F)F`, it took 2 nM to reach half-maximal inhibition in experiment [1] (IC50).

On to `Clc1cccc(CNc2nc(Nc3ccc4[nH]cnc4c3)ncc2Br)c1Cl`, for which, in experiment [1], half-maximal inhibition (IC50) was put at 126 nM. In experiment [1], `c1cc(Nc2ccc3[nH]cnc3c2)nc(Nc2ccc3[nH]cnc3c2)n1` registered an IC50 greater than 1000 nM. Still for that read-out and setting: under `FC(F)(F)c1cnc(Nc2ccc3nc[nH]c3c2)nc1Nc1ccc(Cl)cc1` stands 4 nM. On to `FC(F)(F)c1cnc(Nc2ccc3[nH]cnc3c2)nc1Nc1ccc2[nH]cnc2c1`, for which the IC50 in experiment [1] was determined as 10 nM. The same measure, in the same setting: the figure for `FC(F)(F)c1cnc(Nc2ccc3[nH]cnc3c2)nc1OC1CCCCC1` is 43 nM; for `FC(F)(F)c1cnc(Nc2ccc3nc[nH]c3c2)nc1Nc1cccc(Cl)c1` it is 3 nM. Turning to `FC(F)(F)c1cnc(Nc2ccccc2Cl)nc1Nc1ccc2nc[nH]c2c1`, the IC50 in experiment [1] is greater than 1000 nM.

With `FC(F)(F)c1cnc(Nc2ccc3nc[nH]c3c2)nc1Oc1ccc(Br)cc1`, the IC50 in experiment [1] came out at 562 nM.

Consider `Fc1cnc(Nc2ccc3nc[nH]c3c2)nc1Nc1ccc2nc[nH]c2c1`, for which the 50% inhibitory concentration (IC50) in experiment [1] stood at 430 nM. Same read-out and setting: under `Brc1cnc(Nc2ccc3nc[nH]c3c2)nc1Nc1ccc(Oc2cccnc2)cc1` stands 34 nM; under `Cc1ccccc1Sc1nc(Nc2ccc3[nH]cnc3c2)ncc1C(F)(F)F`, 135 nM; under `CCOc1nc(Nc2ccc3nc[nH]c3c2)ncc1C(F)(F)F`, 77 nM. The same measure, in the same setting: the figure for `NS(=O)(=O)c1ccc(Nc2ncc(C(F)(F)F)c(Nc3ccc4nc[nH]c4c3)n2)cc1` is 0.1 nM.

Take `FC(F)(F)c1cnc(Nc2ccc3[nH]cnc3c2)nc1Nc1ccccc1Cl`: the IC50 in experiment [2] is greater than 1000 nM; in experiment [3], 510 nM; in experiment [4] it was 290 nM; in experiment [5], greater than 1000 nM. Take `c1cc(Nc2ccc3[nH]ccc3c2)nc(Nc2ccc3[nH]ccc3c2)n1`: the IC50 in experiment [1] was greater than 1000 nM.

As for `COc1cccc(Sc2nc(Nc3ccc4nc[nH]c4c3)ncc2C(F)(F)F)c1`, the IC50 in experiment [1] is greater than 1000 nM. In experiment [1], `Fc1ccc(Nc2nc(Nc3ccc4[nH]cnc4c3)ncc2Br)cc1` gave an IC50 of 4 nM.

In turn, `FC(F)(F)c1cnc(Nc2ccc3nc[nH]c3c2)nc1Oc1ccc(Cl)cc1` came in with an IC50 in experiment [1] of 252 nM. Same read-out and setting: under `CN(c1cccc(Cl)c1)c1ncc(C(F)(F)F)c(Nc2ccc3nc[nH]c3c2)n1` stands greater than 1000 nM; under `Brc1cnc(Nc2ccc(Oc3cccnc3)cc2)nc1Nc1ccc2nc[nH]c2c1`, 248 nM; under `Brc1cnc(Nc2ccc3nc[nH]c3c2)nc1NC1CCCc2ccccc21` (centres undefined), 392 nM.

In turn, `FC(F)(F)c1ccc(Nc2ncc(C(F)(F)F)c(Nc3ccc4nc[nH]c4c3)n2)cc1` displayed an IC50 in experiment [1] of 15 nM. In the case of `FC(F)(F)c1cnc(Nc2ccc(Br)cc2)nc1Nc1ccc2[nH]cnc2c1`, the IC50 in experiment [2] is 750 nM; in experiment [6] it was 260 nM and 1200 nM; in experiment [7], 73 nM; in experiment [3] it was 91 nM; in experiment [4], 190 nM; in experiment [1] it was 11 nM. In experiment [5], this molecule registered an IC50 greater than 1000 nM. Take `Brc1cnc(Nc2ccc3[nH]ccc3c2)nc1Nc1ccc2[nH]ccc2c1`: in experiment [1], the IC50 was greater than 1000 nM. The same measure, in the same setting: under `Fc1cnc(Nc2ccc3[nH]ccc3c2)nc1Nc1ccc2[nH]ccc2c1` stands greater than 1000 nM; under `Fc1ccc(Oc2nc(Nc3ccc4[nH]cnc4c3)ncc2C(F)(F)F)cc1`, 32 nM. The same measure, in the same setting: the figure for `Brc1cnc(Nc2ccc3[nH]cnc3c2)nc1NC1CCc2ccccc21` (centres undefined) is 34 nM; for `Cc1ccccc1Oc1nc(Nc2ccc3[nH]cnc3c2)ncc1C(F)(F)F` it is 4 nM. On the same count and under the same terms, the figure for `FC(F)(F)c1cnc(Nc2ccc3[nH]ccc3c2)nc1Nc1ccc2[nH]ccc2c1` is greater than 1000 nM. Take `Clc1cccc(Nc2ncc(Br)c(Nc3ccc4nc[nH]c4c3)n2)c1`: in experiment [1], the IC50 was determined as 9 nM. On the same count and under the same terms, the figure for `COc1cccc(Oc2nc(Nc3ccc4nc[nH]c4c3)ncc2C(F)(F)F)c1` is 160 nM. In the case of `COc1ccc(Nc2nc(Nc3ccc4[nH]cnc4c3)ncc2C(F)(F)F)cc1`, the IC50 in experiment [2] is greater than 1000 nM; in experiment [6] it was 57 nM and 230 nM; in experiment [7] it was 31 nM; in experiment [3], 11 nM; in experiment [4] it was 33 nM; in experiment [1], 8 nM. Further, the IC50 in experiment [5] is greater than 1000 nM. Molecule `Brc1cnc(Nc2ccc3[nH]cnc3c2)nc1Nc1ccc2c(c1)OCO2` showed a 50% inhibitory concentration (IC50) in experiment [1] of 9 nM.

Molecule `Brc1cnc(Nc2ccc3nc[nH]c3c2)nc1Nc1ccc2nc[nH]c2c1` gave an IC50 in experiment [1] of 14 nM. Consider `FC(F)(F)c1cnc(Nc2cccc(Cl)c2)nc1Nc1ccc2[nH]cnc2c1`, for which the IC50 in experiment [1] amounted to 22 nM.

In turn, `Cc1cccc(Nc2ncc(C(F)(F)F)c(Nc3ccc4nc[nH]c4c3)n2)c1` displayed an IC50 in experiment [1] of 15 nM.
